PubChem BioAssay AID1845200 (Molecular Pharmacology Branch, DTP, NCI, 2023)
pIC50: −log10 of the molar value.

Test system: ASPS-1 complex tumor spheroids, viability
Assay: Anticancer human tumor ASPS-1 cell line growth inhibition;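 also: spheroids exposed to agents for 7 days after 3 days of growth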;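 as to viability, T/C: 100% = DMSO vehicle treated spheroids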
Settings: for pIC50: curve of first compound; for viability, T/C: stronger effect = lower value
In short: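 Complex spheroids of malignant cells with endothelial cells and mesenchymal stem cells; agents alone or combined, from near clinical Cmax (or 10 microM if unknown) down in half-log steps, 0.25% DMSO final.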

[1] = second compound 1 µM, first compound 0.0316 µM
[2] = second compound 1 µM, first compound 0.1 µM
[3] = second compound 1 µM, first compound 0.316 µM
[4] = second compound 1 µM, first compound 1 µM
[5] = second compound 1 µM, first compound 3.16 µM
[6] = second compound 1 µM, first compound 10 µM
[7] = second compound 3.16 µM, first compound 0.0316 µM
[8] = second compound 3.16 µM, first compound 0.1 µM
[9] = second compound 3.16 µM, first compound 0.316 µM
[10] = second compound 3.16 µM, first compound 1 µM
[11] = second compound 3.16 µM, first compound 3.16 µM
[12] = second compound 3.16 µM, first compound 10 µM
[13] = second compound 10 µM, first compound 0.0316 µM
[14] = second compound 10 µM, first compound 0.1 µM
[15] = second compound 10 µM, first compound 0.316 µM
[16] = second compound 10 µM, first compound 1 µM
[17] = second compound 10 µM, first compound 3.16 µM
[18] = second compound 10 µM, first compound 10 µM
[19] = second compound 31.6 µM, first compound 0.0316 µM
[20] = second compound 31.6 µM, first compound 0.1 µM
[21] = second compound 31.6 µM, first compound 0.316 µM
[22] = second compound 31.6 µM, first compound 1 µM
[23] = second compound 31.6 µM, first compound 3.16 µM
[24] = second compound 31.6 µM, first compound 10 µM
[25] = second compound 100 µM, first compound 0.0316 µM
[26] = second compound 100 µM, first compound 0.1 µM
[27] = second compound 100 µM, first compound 0.316 µM
[28] = second compound 100 µM, first compound 1 µM
[29] = second compound 100 µM, first compound 3.16 µM
[30] = second compound 100 µM, first compound 10 µM

## CC1COCCN1c1cc(-c2ccnn2C)c2ccnc(-c3ccn[nH]3)c2n1 (stereo not given) + Cn1nnc2c(C(N)=O)ncn2c1=O
Second compound 1 µM
  pIC50: 6.65
Second compound 3.16 µM
  pIC50: > 7.50
Second compound 10 µM
  pIC50: > 7.50
Second compound 31.6 µM
  pIC50: > 7.50
Second compound 100 µM
  pIC50: > 7.50
[1]
  viability, T/C: 72.3%
[2]
  viability, T/C: 59.2%
[3]
  viability, T/C: 46.6%
[4]
  viability, T/C: 41.1%
[5]
  viability, T/C: 46.1%
[6]
  viability, T/C: 43.9%
[7]
  viability, T/C: 38.5%
[8]
  viability, T/C: 44%
[9]
  viability, T/C: 42.2%
[10]
  viability, T/C: 41.6%
[11]
  viability, T/C: 43%
[12]
  viability, T/C: 50.2%
[13]
  viability, T/C: 42.4%
[14]
  viability, T/C: 39.4%
[15]
  viability, T/C: 35.5%
[16]
  viability, T/C: 38.1%
[17]
  viability, T/C: 42.5%
[18]
  viability, T/C: 52.4%
[19]
  viability, T/C: 37.6%
[20]
  viability, T/C: 31.1%
[21]
  viability, T/C: 31.7%
[22]
  viability, T/C: 32.6%
[23]
  viability, T/C: 42.2%
[24]
  viability, T/C: 48.3%
[25]
  viability, T/C: 24.9%
[26]
  viability, T/C: 22.5%
[27]
  viability, T/C: 20.4%
[28]
  viability, T/C: 23.6%
[29]
  viability, T/C: 29.6%
[30]
  viability, T/C: 42%

## COc1cc(C)[nH]c(=O)c1CN1CCc2c(Cl)cc(C(OC)C3COC3)c(Cl)c2C1=O (stereo not given) + Cn1nnc2c(C(N)=O)ncn2c1=O
Second compound 1 µM
  pIC50: < 5.00
Second compound 3.16 µM
  pIC50: < 5.00
Second compound 10 µM
  pIC50: < 5.00
Second compound 31.6 µM
  pIC50: < 5.00
Second compound 100 µM
  pIC50: < 5.00
[1]
  viability, T/C: 107%
[2]
  viability, T/C: 104%
[3]
  viability, T/C: 99.2%
[4]
  viability, T/C: 98.6%
[5]
  viability, T/C: 94.7%
[6]
  viability, T/C: 96.7%
[7]
  viability, T/C: 103%
[8]
  viability, T/C: 101%
[9]
  viability, T/C: 103%
[10]
  viability, T/C: 104%
[11]
  viability, T/C: 103%
[12]
  viability, T/C: 90.8%
[13]
  viability, T/C: 75.3%
[14]
  viability, T/C: 83.9%
[15]
  viability, T/C: 94.9%
[16]
  viability, T/C: 86.8%
[17]
  viability, T/C: 91%
[18]
  viability, T/C: 81.2%
[19]
  viability, T/C: 80.4%
[20]
  viability, T/C: 82.5%
[21]
  viability, T/C: 82.5%
[22]
  viability, T/C: 84.1%
[23]
  viability, T/C: 82.7%
[24]
  viability, T/C: 75.2%
[25]
  viability, T/C: 81.8%
[26]
  viability, T/C: 78.6%
[27]
  viability, T/C: 72.9%
[28]
  viability, T/C: 72.7%
[29]
  viability, T/C: 69%
[30]
  viability, T/C: 70%

## COc1ccc([C@@H](O)c2cc(-c3ncnc4cc(N5CCOCC5)ccc34)c(F)cc2Cl)nn1 + Cn1nnc2c(C(N)=O)ncn2c1=O
Second compound 1 µM
  pIC50: 5.01
Second compound 3.16 µM
  pIC50: < 5.00
Second compound 10 µM
  pIC50: 5.17
Second compound 31.6 µM
  pIC50: 5.58
Second compound 100 µM
  pIC50: 5.76
[1]
  viability, T/C: 107%
[2]
  viability, T/C: 103%
[3]
  viability, T/C: 106%
[4]
  viability, T/C: 101%
[5]
  viability, T/C: 92%
[6]
  viability, T/C: 48.4%
[7]
  viability, T/C: 103%
[8]
  viability, T/C: 102%
[9]
  viability, T/C: 105%
[10]
  viability, T/C: 99.8%
[11]
  viability, T/C: 75.7%
[12]
  viability, T/C: 53.1%
[13]
  viability, T/C: 92%
[14]
  viability, T/C: 94.9%
[15]
  viability, T/C: 99%
[16]
  viability, T/C: 79.2%
[17]
  viability, T/C: 69.8%
[18]
  viability, T/C: 40.3%
[19]
  viability, T/C: 82.7%
[20]
  viability, T/C: 83.7%
[21]
  viability, T/C: 77.2%
[22]
  viability, T/C: 67.7%
[23]
  viability, T/C: 46.2%
[24]
  viability, T/C: 33.8%
[25]
  viability, T/C: 82.1%
[26]
  viability, T/C: 67.6%
[27]
  viability, T/C: 64.7%
[28]
  viability, T/C: 57.1%
[29]
  viability, T/C: 44.5%
[30]
  viability, T/C: 33.2%

## Cc1cc(C)c(CNC(=O)c2cc(-c3ccc(CN4CCOCC4)cc3)cc3c2cnn3C2CCCC2)c(=O)[nH]1 + Cn1nnc2c(C(N)=O)ncn2c1=O
Second compound 1 µM
  pIC50: < 5.00
Second compound 3.16 µM
  pIC50: < 5.00
Second compound 10 µM
  pIC50: < 5.00
Second compound 31.6 µM
  pIC50: < 5.00
Second compound 100 µM
  pIC50: < 5.00
[1]
  viability, T/C: 94.8%
[2]
  viability, T/C: 95.4%
[3]
  viability, T/C: 94.8%
[4]
  viability, T/C: 92.7%
[5]
  viability, T/C: 93.2%
[6]
  viability, T/C: 86.7%
[7]
  viability, T/C: 102%
[8]
  viability, T/C: 98.1%
[9]
  viability, T/C: 98.8%
[10]
  viability, T/C: 99.6%
[11]
  viability, T/C: 92%
[12]
  viability, T/C: 91.2%
[13]
  viability, T/C: 86.3%
[14]
  viability, T/C: 77.6%
[15]
  viability, T/C: 88%
[16]
  viability, T/C: 89.3%
[17]
  viability, T/C: 82%
[18]
  viability, T/C: 82%
[19]
  viability, T/C: 81.4%
[20]
  viability, T/C: 83.7%
[21]
  viability, T/C: 77.7%
[22]
  viability, T/C: 87.3%
[23]
  viability, T/C: 73.2%
[24]
  viability, T/C: 69.8%
[25]
  viability, T/C: 69%
[26]
  viability, T/C: 67.5%
[27]
  viability, T/C: 73.4%
[28]
  viability, T/C: 71.3%
[29]
  viability, T/C: 61.3%
[30]
  viability, T/C: 55.3%

## Cc1sc2c(c1C)C(c1ccc(Cl)cc1)=NC(CC(=O)Nc1ccc(O)cc1)c1nnc(C)n1-2 (stereo not given) + Cn1nnc2c(C(N)=O)ncn2c1=O
Second compound 1 µM
  pIC50: < 5.52
Second compound 3.16 µM
  pIC50: < 5.52
Second compound 10 µM
  pIC50: < 5.52
Second compound 31.6 µM
  pIC50: < 5.52
Second compound 100 µM
  pIC50: < 5.52
Second compound 1 µM, first compound 0.00949 µM
  viability, T/C: 102%
Second compound 1 µM, first compound 0.03 µM
  viability, T/C: 110%
Second compound 1 µM, first compound 0.0949 µM
  viability, T/C: 114%
Second compound 1 µM, first compound 0.3 µM
  viability, T/C: 99.4%
Second compound 1 µM, first compound 0.949 µM
  viability, T/C: 91.6%
Second compound 1 µM, first compound 3 µM
  viability, T/C: 88.6%
Second compound 3.16 µM, first compound 0.00949 µM
  viability, T/C: 101%
Second compound 3.16 µM, first compound 0.03 µM
  viability, T/C: 108%
Second compound 3.16 µM, first compound 0.0949 µM
  viability, T/C: 111%
Second compound 3.16 µM, first compound 0.3 µM
  viability, T/C: 96.7%
Second compound 3.16 µM, first compound 0.949 µM
  viability, T/C: 94.9%
Second compound 3.16 µM, first compound 3 µM
  viability, T/C: 89.9%
Second compound 10 µM, first compound 0.00949 µM
  viability, T/C: 88.7%
Second compound 10 µM, first compound 0.03 µM
  viability, T/C: 99.6%
Second compound 10 µM, first compound 0.0949 µM
  viability, T/C: 99.1%
Second compound 10 µM, first compound 0.3 µM
  viability, T/C: 100%
Second compound 10 µM, first compound 0.949 µM
  viability, T/C: 97.5%
Second compound 10 µM, first compound 3 µM
  viability, T/C: 83.9%
Second compound 31.6 µM, first compound 0.00949 µM
  viability, T/C: 94.6%
Second compound 31.6 µM, first compound 0.03 µM
  viability, T/C: 92.3%
Second compound 31.6 µM, first compound 0.0949 µM
  viability, T/C: 103%
Second compound 31.6 µM, first compound 0.3 µM
  viability, T/C: 95.6%
Second compound 31.6 µM, first compound 0.949 µM
  viability, T/C: 83.9%
Second compound 31.6 µM, first compound 3 µM
  viability, T/C: 80.3%
Second compound 100 µM, first compound 0.00949 µM
  viability, T/C: 75.9%
Second compound 100 µM, first compound 0.03 µM
  viability, T/C: 82.6%
Second compound 100 µM, first compound 0.0949 µM
  viability, T/C: 84.8%
Second compound 100 µM, first compound 0.3 µM
  viability, T/C: 79%
Second compound 100 µM, first compound 0.949 µM
  viability, T/C: 70.7%
Second compound 100 µM, first compound 3 µM
  viability, T/C: 61.2%

## [2H]c1nc(C)nc([2H])c1-c1cc(NC[C@@H](C)c2cccc3c(C(=O)NC)ccnc23)ncn1 + Cn1nnc2c(C(N)=O)ncn2c1=O
Second compound 1 µM
  pIC50: < 5.00
Second compound 3.16 µM
  pIC50: < 5.00
Second compound 10 µM
  pIC50: < 5.00
Second compound 31.6 µM
  pIC50: < 5.00
Second compound 100 µM
  pIC50: < 5.00
[1]
  viability, T/C: 106%
[2]
  viability, T/C: 100%
[3]
  viability, T/C: 98.3%
[4]
  viability, T/C: 101%
[5]
  viability, T/C: 95.8%
[6]
  viability, T/C: 99.2%
[7]
  viability, T/C: 104%
[8]
  viability, T/C: 104%
[9]
  viability, T/C: 103%
[10]
  viability, T/C: 104%
[11]
  viability, T/C: 101%
[12]
  viability, T/C: 98.3%
[13]
  viability, T/C: 88.4%
[14]
  viability, T/C: 93.2%
[15]
  viability, T/C: 96.4%
[16]
  viability, T/C: 90.1%
[17]
  viability, T/C: 89.5%
[18]
  viability, T/C: 89.7%
[19]
  viability, T/C: 79.8%
[20]
  viability, T/C: 80.2%
[21]
  viability, T/C: 81.1%
[22]
  viability, T/C: 79.7%
[23]
  viability, T/C: 78.3%
[24]
  viability, T/C: 76.4%
[25]
  viability, T/C: 74.2%
[26]
  viability, T/C: 72.5%
[27]
  viability, T/C: 74.5%
[28]
  viability, T/C: 66.5%
[29]
  viability, T/C: 68.4%
[30]
  viability, T/C: 65.8%
